The target of this experiment is T1, OPRD1 (Homo sapiens, UniProt P41143).
T1 construct: purchased Promega (in-house HiBiT-GPCR construct library, NanoBRET)
Put plainly: NanoBRET screen HiBiT-OPRD1 in HEK293. It is filed as binding. The protocol: Each tracer candidate was screened across the entire library of HiBiT-GPCR constructs using NanoBRET as the detection modality. As depicted in Figure 4A, the specificity of interactions was evaluated through decrease in BRET due to competitive displacement of a bound tracer by excess parental compound. Each tracer was analyzed for binding to each HiBiT-GPCR fusion in the absence and in the presence of competing parental compound. Briefly, HEK293 cells were transfected with HiBiT-GPCR constructs diluted into promoterless DNA to reduce expression and maximize translocation to the cell surface. Each tracer candidate was then screened at concentrations of 1 μM and 0.1 μM across cells expressing these fusions. Cells were treated for 1.5 h with tracer either alone or in the presence of 20 μM competing parental compound (i.e., control). BRET was measured upon addition of purified LgBiT and subsequent complementation with HiBiT genetically fused to a GPCR. The specificity of interactions was assessed through a decrease in BRET signal due to competitive displacement of the bound tracer. To further gauge the robustness of these interactions, the fold response over the control (i.e., BRETtracer/BRETcontrol) was calculated. We chose a 1.5-fold response, which translates to ≥7-fold signal over noise as the minimal threshold required to score an interaction as positive.
HiBiT-GPCR DNA constructs were diluted in 10 mM Tris pH 8 to a final concentration of 0.01 μg/μL, arrayed in 96-well plates and stored at −20 °C. For transfection, HEK293 cells were suspended in Opti-MEM (without phenol red) supplemented with 2% fetal bovine serum (Seradigm) and 100 units/mL penicillin–streptomycin (Gibco) at a final concentration of 220,000 cells/mL and dispensed into white 96-well plates at 90 μL/well. Subsequent transfections and screens were carried using an Agilent Bravo Automated Liquid Handling Platform. First, the 96-well HiBiT DNA arrays were diluted 25-fold in Opti-MEM (without serum or phenol red) to a final concentration of 0.0004 μg/μL and 20 μL of the diluted DNAs were transferred into new 96-well plates. Next, promoterless carrier DNA (1 μg/μL) was diluted 25-fold (0.04 μg/μL) and then dispensed into the diluted arrays at 20 μL/well. Following brief mixing, Viafect transfection reagent (Promega) diluted 16-fold into Opti-MEM was dispensed into the plates at 40 μL/well. After mixing by pipetting, plates were incubated for 10 min on the pipetting station deck. The DNA-transfection reagent complexes were then added to plates containing cells. To facilitate the screen, 10 μL of DNA-transfection reagent complexes were added in duplicates to the top 4 and bottom 4 rows, resulting in two identical 48-well arrays per plate. Plates with transfected cells were incubated for 18–20 h at 37 °C/5% CO2. A screen of each tracer across the entire library using two different concentrations requires duplicate plates of transfected cells. Depending on the number of tracers being screened, transfections can be scaled up using the same ratios. The next day, for each tracer, four 20× screening solutions in tracer dilution buffer (Promega) were prepared: two duplicates at final concentration of 20 μM and two duplicates at a final concentration of 2 μM. […] The four resulting solutions were diluted 4-fold in Opti-MEM without serum or phenol red to generate 5× solutions (5 µM and 0.5 µM tracer +/− 100 μM competing compound). To screen the library, a BioTek MultiFlo FX liquid dispenser was used to dispense 22.5 µL of tracer solution to the top 4 rows and 22.5 µL tracer + competing compound solution to the 4 bottom rows. Plates were briefly mixed on an orbital shaker and incubated for 1.5 h at room temperature. […] Plates were briefly mixed on an orbital shaker and incubated for 15 min to allow complementation.
Background: In BRET a luciferase serves as donor, and the signal depends on an acceptor being close.

T1 sequence (P41143 whole entry): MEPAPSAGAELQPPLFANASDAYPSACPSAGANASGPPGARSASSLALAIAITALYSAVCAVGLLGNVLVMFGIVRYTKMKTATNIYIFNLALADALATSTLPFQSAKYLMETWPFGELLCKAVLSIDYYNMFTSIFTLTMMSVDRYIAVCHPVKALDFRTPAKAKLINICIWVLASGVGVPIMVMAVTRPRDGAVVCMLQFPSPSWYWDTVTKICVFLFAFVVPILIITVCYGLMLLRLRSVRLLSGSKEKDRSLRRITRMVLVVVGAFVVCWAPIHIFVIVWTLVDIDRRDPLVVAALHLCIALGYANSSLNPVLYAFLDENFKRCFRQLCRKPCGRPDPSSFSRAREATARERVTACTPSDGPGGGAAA

For `O=C(CCc1ccc2n1[B-](F)(F)[N+]1=C(c3ccc[nH]3)C=CC1=C2)NCc1ccc(C(=O)NCCOCCC(=O)N[C@@H]2CC[C@@]3(O)[C@H]4Cc5ccc(O)c6c5[C@@]3(CCN4CC3CC3)[C@H]2O6)cc1` [Naltrexone-3-NB590], the “NanoBRET Fold Response” value was 1.81 (OPRD1, tracer 0.1μM) and 1.52 (OPRD1, tracer 1μM). On to `CN1CCN(C2=Nc3cc(Cl)ccc3N(CC(=O)NCCOCCOCCOCCOCCNC(=O)CCc3ccc4n3[B-](F)(F)[N+]3=C(c5ccc[nH]5)C=CC3=C4)c3ccccc32)CC1` [Clozapine-c-2-NB590], for which the “NanoBRET Fold Response” value was determined as 0.99 (OPRD1, 0.1μM tracer) and 0.92 (OPRD1, 1μM tracer). The corresponding values for `O=C(CCOCCOCCOCCOCCNC(=O)CCc1ccc2n1[B-](F)(F)[N+]1=C(c3ccc[nH]3)C=CC1=C2)NCCCN1CCN(C2=Nc3cc(Cl)ccc3Nc3ccccc32)CC1` [Clozapine-a-2-NB590] are 1.04 and 0.95. With `CCOC(=O)c1cc(C#N)c(N2CCC(C(=O)NS(=O)(=O)Cc3ccccc3/C=C/C(=O)NCCNC(=O)CCc3ccc4n3[B-](F)(F)[N+]3=C(c5ccc[nH]5)C=CC3=C4)CC2)nc1C` [AZD1283-1-NB590], the “NanoBRET Fold Response” value reads like this: (OPRD1, 0.1μM) 1.09; (OPRD1, 1μM) 1.08. Regarding `COc1ccc2[nH]c(-c3ccc(CNC(=O)CCOCCOCCOCCOCCNC(=O)CCc4ccc5n4[B-](F)(F)[N+]4=C(c6ccc[nH]6)C=CC4=C5)cc3)c(CCNC(C)=O)c2n1` [AzomelatoninICO9-2-NB590], the “NanoBRET Fold Response” value by setting is: (0.1μM tracer) 1.06; (1μM tracer) 1.03.

Consider `CCCn1c(=O)c2[nH]c(-c3ccc(OCC(=O)NCCNC(=O)CCOCCNC(=O)c4ccc(CNC(=O)CCc5ccc6n5[B-](F)(F)[N+]5=C(c7ccc[nH]7)C=CC5=C6)cc4)cc3)nc2n(CCC)c1=O` [XAC-3-NB590], for which the “NanoBRET Fold Response” value (OPRD1, tracer 0.1μM) was found to be 0.97 and the “NanoBRET Fold Response” value (OPRD1, tracer 1μM) is on record as 0.81.

For the compound `COc1ccccc1N1CCN(CCCCN2C(=O)c3ccc(CNC(=O)CCOCCNC(=O)c4ccc(CNC(=O)CCc5ccc6n5[B-](F)(F)[N+]5=C(c7ccc[nH]7)C=CC5=C6)cc4)cc3C2=O)CC1` [NAN-190-3-NB590], the “NanoBRET Fold Response” value (OPRD1, tracer 0.1μM) stood at 0.79 and the “NanoBRET Fold Response” value (OPRD1, tracer 1μM) was 1.17. As to `CN(CCC=C1c2ccccc2CCc2ccccc21)C(=O)CCOCCOCCOCCOCCNC(=O)CCc1ccc2n1[B-](F)(F)[N+]1=C(c3ccc[nH]3)C=CC1=C2` [Amitriptyline-e-2-NB590], the “NanoBRET Fold Response” value (tracer at 1μM) is reported as 1.01. For the compound `O=C(CCc1ccc2n1[B-](F)(F)[N+]1=C(c3ccc[nH]3)C=CC1=C2)NCc1ccc(C(=O)NCCOCCOCCNCC(O)COc2cccc3ccccc23)cc1` (stereo not drawn) [Propranolol-3-NB590], the “NanoBRET Fold Response” value reads like this: (OPRD1, 0.1μM) 0.97; (OPRD1, 1μM) 1.01.

Consider `COc1ccc2c(n1)c(CCNC(C)=O)cn2CCNC(=O)CCc1ccc2n1[B-](F)(F)[N+]1=C(c3ccc[nH]3)C=CC1=C2` [Azamelatonin-1-NB590], for which the “NanoBRET Fold Response” value (0.1μM tracer) was determined as 1.00 and the “NanoBRET Fold Response” value (1μM tracer) came out at 1.00. In the case of `O=C(CCOCCOCCOCCOCCNC(=O)CCc1ccc2n1[B-](F)(F)[N+]1=C(c3ccc[nH]3)C=CC1=C2)NCCCN1CCN(C2=Nc3ccccc3Oc3ccc(Cl)cc32)CC1` [Loxapine-a-2-NB590], the “NanoBRET Fold Response” value was 1.01 (OPRD1, tracer 0.1μM) and 1.04 (OPRD1, tracer 1μM). Regarding `N#CN/C(=N\CCNC(=O)c1ccc(N)cc1)NCCCOc1cccc(CN2CCCCC2)c1` [Aminopotentidine (unmodified)], the “NanoBRET Fold Response” value is reported as 1.25 (OPRD1, other tracers/Aminopotentidine (unmodified), 0.1μM) and 1.01 (OPRD1, other tracers/Aminopotentidine (unmodified), 1μM). As for `COc1ccccc1N1CCN(CCCCN2C(=O)c3ccc(CNC(=O)CCOCCOCCOCCOCCNC(=O)CCc4ccc5n4[B-](F)(F)[N+]4=C(c6ccc[nH]6)C=CC4=C5)cc3C2=O)CC1` [NAN-190-2-NB590], the “NanoBRET Fold Response” value (OPRD1, tracer 0.1μM) turned out to be 0.98. With `CC(C)N(CC[C@H](c1ccccc1)c1cc(CCNC(=O)c2ccc(CNC(=O)CCc3ccc4n3[B-](F)(F)[N+]3=C(c5ccc[nH]5)C=CC3=C4)cc2)ccc1O)C(C)C` [Tolterodine-BZ-NB590], the “NanoBRET Fold Response” value reads like this: (OPRD1, tracer 0.1μM) 1.06; (OPRD1, tracer 1μM) 1.05.

In the case of `O=C(CCc1ccc2n1[B-](F)(F)[N+]1=C(c3ccc[nH]3)C=CC1=C2)NCCOCCOCCNC(=O)OCCOCCN1CCN(C2=Nc3ccccc3Sc3ccccc32)CC1` [Quetiapine-a-2-NB590], the “NanoBRET Fold Response” value is, setting by setting: (OPRD1, tracer 0.1μM) 1.11; (OPRD1, tracer 1μM) 0.89. For `CN1CCN(C2=Nc3cc(Cl)ccc3Nc3ccc(CNC(=O)CCOCCOCCOCCOCCNC(=O)CCc4ccc5n4[B-](F)(F)[N+]4=C(c6ccc[nH]6)C=CC4=C5)cc32)CC1` [Clozapine-b-2-NB590], the “NanoBRET Fold Response” value stood at 1.02 (OPRD1, 0.1μM tracer) and 0.99 (OPRD1, 1μM tracer). Take `CC(C)N(CC[C@H](c1ccccc1)c1cc(CCNC(=O)CCOCCOCCOCCOCCNC(=O)CCc2ccc3n2[B-](F)(F)[N+]2=C(c4ccc[nH]4)C=CC2=C3)ccc1O)C(C)C` [Tolterodine-2-NB590]: the “NanoBRET Fold Response” value (OPRD1, tracer 0.1μM) came out at 1.00 and the “NanoBRET Fold Response” value (OPRD1, tracer 1μM) is reported as 0.94. On to `CN(C)CCC=C1c2ccccc2CCc2ccc(C(=O)NCCNC(=O)CCOCCOCCOCCOCCNC(=O)CCc3ccc4n3[B-](F)(F)[N+]3=C(c5ccc[nH]5)C=CC3=C4)cc21` [Amitriptyline-a-2-NB590], for which the “NanoBRET Fold Response” value turned out to be 0.99 (tracer at 0.1μM) and 0.91 (tracer at 1μM). For the compound `Cc1cc2c(s1)Nc1ccccc1N=C2N1CCN(CCCNC(=O)CCOCCOCCOCCOCCNC(=O)CCc2ccc3n2[B-](F)(F)[N+]2=C(c4ccc[nH]4)C=CC2=C3)CC1` [Olanzapine-a-2-NB590], the “NanoBRET Fold Response” value by setting is: (OPRD1, tracer 0.1μM) 0.95; (OPRD1, tracer 1μM) 1.09. Regarding `N#CN=C(NCCCOc1cccc(CN2CCCCC2)c1)NCCNC(=O)CCOCCOCCOCCOCCNC(=O)CCc1ccc2n1[B-](F)(F)[N+]1=C(c3ccc[nH]3)C=CC1=C2` [Aminopotentidine-2-NB590], the “NanoBRET Fold Response” value is 1.05 (OPRD1, tracer 0.1μM) and 1.02 (OPRD1, tracer 1μM). The corresponding values for `Cc1nc2n(c(=O)c1CCN1CCC(c3noc4cc(F)ccc34)CC1)CCCC2OC(=O)NCCOCCOCCOCCOCCNC(=O)CCc1ccc2n1[B-](F)(F)[N+]1=C(c3ccc[nH]3)C=CC1=C2` (stereo not drawn) [Risperidone-2-NB590] are 0.99 and 0.99. Consider `CN(C)CCC=C1c2ccccc2CCc2ccc(C(=O)NCCNC(=O)CCOCCOCCOCCOCCNC(=O)CCc3ccc4n3[B-](F)(F)[N+]3=C(c5ccc[nH]5)C=CC3=C4)cc21` [Amitriptyline-b-2-NB590], for which the “NanoBRET Fold Response” value is, setting by setting: (tracer at 0.1μM, listed as amitriptyline-b-2-NB590) 1.01; (tracer at 1μM, listed as amitriptyline-b-2-NB590) 1.01.
